# From article PMC5218480 (PLoS ONE, 2017)
# System: MV-4-11 cells
# Assay: Gene expression microarray analysis (Affymetrix PrimeView) and GSEA
# Assay type: cell-based, human
# Set-up: RFU PODN (11730768_x_at) / Fold change /veh PODN (11730768_x_at) / RFU LINC00158 (11744669_a_at) / Fold change /veh LINC00158 (11744669_a_at) / RFU DUSP10 (11751237_a_at) / Fold change /veh DUSP10 (11751237_a_at) / RFU ID3 (11757404_x_at) / Fold change /veh ID3 (11757404_x_at) / RFU PLEKHG5 (11737974_s_at) / Fold change /veh PLEKHG5 (11737974_s_at) / RFU LRRC4B (11730491_at) / Fold change /veh LRRC4B (11730491_at) / RFU GIMAP4 (11747438_a_at) / Fold change /veh GIMAP4 (11747438_a_at) / RFU KRT8 (11758183_x_at) / Fold change /veh KRT8 (11758183_x_at) / RFU CNN1 (11734310_a_at) / Fold change /veh CNN1 (11734310_a_at) / RFU VPS37D (11726825_at) / Fold change /veh VPS37D (11726825_at) / RFU C10orf10 (11716522_x_at) / Fold change /veh C10orf10 (11716522_x_at) / RFU KIR2DL2 /// KIR2DL4 /// KIR2DL5A /// KIR2DL5B /// KIR2DS1 /// KIR2DS2 /// KIR2DS3 /// KIR2DS4 /// KIR3DL3 /// KIR3DL3 /// KIR3DS1 (11738374_at) / Fold change /veh KIR2DL2 /// KIR2DL4 /// KIR2DL5A /// KIR2DL5B /// KIR2DS1 /// KIR2DS2 /// KIR2DS3 /// KIR2DS4 /// KIR3DL3 /// KIR3DL3 /// KIR3DS1 (11738374_at) / RFU C1QL1 (11718748_at) / Fold change /veh C1QL1 (11718748_at) / RFU TMPRSS4 (11747572_a_at) / Fold change /veh TMPRSS4 (11747572_a_at) / RFU HAMP (11756126_x_at) / Fold change /veh HAMP (11756126_x_at) / RFU RNFT2 (11725882_a_at) / Fold change /veh RNFT2 (11725882_a_at) / RFU NR4A2 (11747474_a_at) / Fold change /veh NR4A2 (11747474_a_at) / RFU ABCC12 (11746883_a_at) / Fold change /veh ABCC12 (11746883_a_at) / RFU TMEM136 (11760407_x_at) / Fold change /veh TMEM136 (11760407_x_at) / RFU CLDN22 /// WWC2 (11732394_at) / Fold change /veh CLDN22 /// WWC2 (11732394_at) / RFU HLA-DPB1 (11760878_x_at) / Fold change /veh HLA-DPB1 (11760878_x_at) / RFU SPINT1 (11716480_a_at) / Fold change /veh SPINT1 (11716480_a_at) / RFU GAP43 (11754022_s_at) / Fold change /veh GAP43 (11754022_s_at) / RFU A4GNT (11735810_at) / Fold change /veh A4GNT (11735810_at) / RFU PRB3 (11715151_x_at) / Fold change /veh PRB3 (11715151_x_at) / RFU TUBB4B (11761932_at) / Fold change /veh TUBB4B (11761932_at) / RFU CAPN14 (11732068_a_at) / Fold change /veh CAPN14 (11732068_a_at) / RFU TMCC2 (11721928_a_at) / Fold change /veh TMCC2 (11721928_a_at) / RFU IRGQ (11745062_a_at) / Fold change /veh IRGQ (11745062_a_at) / RFU FAM174B (11720279_a_at) / Fold change /veh FAM174B (11720279_a_at) / RFU TMPRSS4 (11748680_a_at) / Fold change /veh TMPRSS4 (11748680_a_at) / RFU FAM212B (11763350_a_at) / Fold change /veh FAM212B (11763350_a_at) / RFU PLEKHG5 (11743358_a_at) / Fold change /veh PLEKHG5 (11743358_a_at) / RFU ZSCAN30 (11745921_a_at) / Fold change /veh ZSCAN30 (11745921_a_at) / RFU CMKLR1 (11741424_a_at) / Fold change /veh CMKLR1 (11741424_a_at) / RFU LOC101060620 /// MAPK8IP1 (11723275_at) / Fold change /veh LOC101060620 /// MAPK8IP1 (11723275_at) / RFU SPTSSB (11747773_x_at) / Fold change /veh SPTSSB (11747773_x_at) / RFU PRSS12 (11739890_at) / Fold change /veh PRSS12 (11739890_at) / RFU BIN1 (11741810_x_at) / Fold change /veh BIN1 (11741810_x_at) / RFU WNT11 (11732464_a_at) / Fold change /veh WNT11 (11732464_a_at) / RFU C10orf10 (11716521_a_at) / Fold change /veh C10orf10 (11716521_a_at) / RFU C5orf56 (11738089_at) / Fold change /veh C5orf56 (11738089_at) / RFU CYB561 (11721691_x_at) / Fold change /veh CYB561 (11721691_x_at) / RFU ANKRD19P (11752326_a_at) / Fold change /veh ANKRD19P (11752326_a_at) / RFU OR2T12 /// OR2T33 /// OR2T8 (11738714_s_at) / Fold change /veh OR2T12 /// OR2T33 /// OR2T8 (11738714_s_at) / RFU VCAN (11748164_a_at) / Fold change /veh VCAN (11748164_a_at) / RFU JSRP1 (11732532_at) / Fold change /veh JSRP1 (11732532_at) / RFU KRTAP10-11 (11738290_x_at) / Fold change /veh KRTAP10-11 (11738290_x_at) / RFU MYO3A (11730013_a_at) / Fold change /veh MYO3A (11730013_a_at) / RFU EBF3 (11725865_a_at) / Fold change /veh EBF3 (11725865_a_at) / RFU CAMK2N1 (11719241_x_at) / Fold change /veh CAMK2N1 (11719241_x_at) / RFU C5orf56 (11738088_a_at) / Fold change /veh C5orf56 (11738088_a_at) / RFU OLFML3 (11715873_a_at) / Fold change /veh OLFML3 (11715873_a_at) / RFU LOC100653217 /// NTM (11731650_a_at) / Fold change /veh LOC100653217 /// NTM (11731650_a_at) / RFU MAPK11 (11762145_a_at) / Fold change /veh MAPK11 (11762145_a_at) / RFU FIZ1 (11724087_x_at) / Fold change /veh FIZ1 (11724087_x_at) / RFU OASL (11726364_x_at) / Fold change /veh OASL (11726364_x_at) / RFU SOX15 (11748057_x_at) / Fold change /veh SOX15 (11748057_x_at) / RFU CD79A (11719716_a_at) / Fold change /veh CD79A (11719716_a_at) / RFU HIST1H1D (11736915_at) / Fold change /veh HIST1H1D (11736915_at) / RFU CASKIN2 (11723855_a_at) / Fold change /veh CASKIN2 (11723855_a_at) / RFU LOC730098 (11760151_x_at) / Fold change /veh LOC730098 (11760151_x_at) / RFU OR4N2 (11742367_at) / Fold change /veh OR4N2 (11742367_at) / RFU PRRT2 (11749266_a_at) / Fold change /veh PRRT2 (11749266_a_at) / RFU SNX32 (11753110_a_at) / Fold change /veh SNX32 (11753110_a_at) / RFU CDHR5 (11726645_a_at) / Fold change /veh CDHR5 (11726645_a_at) / RFU RCAN1 (11760418_a_at) / Fold change /veh RCAN1 (11760418_a_at) / RFU FAM167A (11723789_a_at) / Fold change /veh FAM167A (11723789_a_at) / RFU FAM26E (11764081_at) / Fold change /veh FAM26E (11764081_at) / RFU ISYNA1 (11749810_s_at) / Fold change /veh ISYNA1 (11749810_s_at) / RFU ACY1 (11761880_at) / Fold change /veh ACY1 (11761880_at) / RFU 11764098_at / Fold change /veh 11764098_at / RFU SAMD14 (11745864_x_at) / Fold change /veh SAMD14 (11745864_x_at) / RFU NPB (11741838_a_at) / Fold change /veh NPB (11741838_a_at) / RFU TMPRSS6 (11731388_a_at) / Fold change /veh TMPRSS6 (11731388_a_at) / RFU KRTAP10-2 (11738614_at) / Fold change /veh KRTAP10-2 (11738614_at) / RFU ARHGAP8 /// PRR5-ARHGAP8 (11727945_x_at) / Fold change /veh ARHGAP8 /// PRR5-ARHGAP8 (11727945_x_at) / RFU KRTAP5-7 /// NADSYN1 (11734609_at) / Fold change /veh KRTAP5-7 /// NADSYN1 (11734609_at) / RFU RASL12 (11751679_a_at) / Fold change /veh RASL12 (11751679_a_at) / RFU CDKN2B (11736163_a_at) / Fold change /veh CDKN2B (11736163_a_at) / RFU PRF1 (11729649_at) / Fold change /veh PRF1 (11729649_at) / RFU, ZNF638 /// ZNF638-IT1 / Fold change vs veh, ZNF638 /// ZNF638-IT1 / RFU, PANK3 / Fold change vs veh, PANK3 / RFU, SH3YL1 / Fold change vs veh, SH3YL1 / RFU, ZEB2 / Fold change vs veh, ZEB2 / RFU, NRIP1 / Fold change vs veh, NRIP1 / RFU, PTTG1IP / Fold change vs veh, PTTG1IP / RFU, CAPN2 / Fold change vs veh, CAPN2 / RFU, MED14 / Fold change vs veh, MED14 / RFU, SNORA58 / Fold change vs veh, SNORA58 / RFU, C1orf63 / Fold change vs veh, C1orf63 / RFU, LRRFIP1 / Fold change vs veh, LRRFIP1 / RFU, NDUFAF7 / Fold change vs veh, NDUFAF7 / RFU, SLC12A2 / Fold change vs veh, SLC12A2 / RFU, IBTK / Fold change vs veh, IBTK / RFU, ESF1 / Fold change vs veh, ESF1 / Fold change vs veh, TMEM50B / RFU, TAOK1 / Fold change vs veh, TAOK1 / RFU, ACBD3 / Fold change vs veh, ACBD3 / RFU, TMA16 / Fold change vs veh, TMA16 / RFU, RWDD3 / Fold change vs veh, RWDD3 / RFU, BCAT1 / Fold change vs veh, BCAT1 / RFU, EDEM3 / Fold change vs veh, EDEM3 / RFU, TMEM33 / Fold change vs veh, TMEM33 / RFU, WDR75 / Fold change vs veh, WDR75 / RFU, AHCTF1 / Fold change vs veh, AHCTF1 / RFU, TFRC / Fold change vs veh, TFRC / RFU, ZDHHC17 / Fold change vs veh, ZDHHC17 / RFU, NOM1 / Fold change vs veh, NOM1 / RFU, ARL8B / Fold change vs veh, ARL8B / RFU, ZBTB11 / Fold change vs veh, ZBTB11 / RFU, TAMM41 / Fold change vs veh, TAMM41 / RFU, KIAA1704 /// LOC100996395 / Fold change vs veh, KIAA1704 /// LOC100996395 / RFU, ING1 / Fold change vs veh, ING1 / RFU, TRMT61B / Fold change vs veh, TRMT61B / RFU, FUBP3 / Fold change vs veh, FUBP3 / RFU, TP53 / Fold change vs veh, TP53 / RFU, TNKS2 / Fold change vs veh, TNKS2 / RFU, ZFP14 / Fold change vs veh, ZFP14 / RFU, ACTR2 / Fold change vs veh, ACTR2 / RFU, PPP3R1 / Fold change vs veh, PPP3R1 / RFU, PIK3R1 / Fold change vs veh, PIK3R1 / RFU, HNRNPA1 / Fold change vs veh, HNRNPA1 / RFU, RNF170 / Fold change vs veh, RNF170 / RFU, ZNF28 / Fold change vs veh, ZNF28 / RFU, RNGTT / Fold change vs veh, RNGTT / RFU, OGT / Fold change vs veh, OGT / RFU, BRD1 / Fold change vs veh, BRD1 / RFU, MARS / Fold change vs veh, MARS / RFU, ZNF655 / Fold change vs veh, ZNF655 / RFU, FAHD1 / Fold change vs veh, FAHD1 / RFU, BDP1 / Fold change vs veh, BDP1 / RFU, LRRCC1 / Fold change vs veh, LRRCC1 / RFU, ARID1A / Fold change vs veh, ARID1A / RFU, ZNF146 / Fold change vs veh, ZNF146 / RFU, ZNF330 / Fold change vs veh, ZNF330 / RFU, GPN3 / Fold change vs veh, GPN3 / RFU, C9orf123 / Fold change vs veh, C9orf123 / RFU, N4BP2L2 / Fold change vs veh, N4BP2L2 / RFU, ARFIP1 / Fold change vs veh, ARFIP1 / RFU, FAM179B / Fold change vs veh, FAM179B / RFU, BCL10 / Fold change vs veh, BCL10 / RFU, UHRF1BP1L / Fold change vs veh, UHRF1BP1L / RFU, BET1 / Fold change vs veh, BET1 / RFU, CNOT2 / Fold change vs veh, CNOT2 / RFU, ZNF268 / Fold change vs veh, ZNF268 / Fold change vs veh, ZNF507 / RFU, DGCR2 / Fold change vs veh, DGCR2 / RFU, WDSUB1 / Fold change vs veh, WDSUB1 / Fold change vs veh, HSP90B1 /// MIR3652 / RFU, ADSS / Fold change vs veh, ADSS / RFU, GK / Fold change vs veh, GK / RFU, ZNF148 / Fold change vs veh, ZNF148 / RFU, TAF9 / Fold change vs veh, TAF9 / RFU, SLC1A5 / Fold change vs veh, SLC1A5 / RFU, SLMO2 / Fold change vs veh, SLMO2 / RFU, ABCC4 / Fold change vs veh, ABCC4 / RFU, LOC101060439 /// RAP1B / Fold change vs veh, LOC101060439 /// RAP1B / RFU, RFX7 / Fold change vs veh, RFX7 / RFU, GTPBP10 / Fold change vs veh, GTPBP10 / RFU, CNEP1R1 / Fold change vs veh, CNEP1R1 / RFU, BIVM-ERCC5 /// ERCC5 / Fold change vs veh, BIVM-ERCC5 /// ERCC5 / RFU, ILF3 / Fold change vs veh, ILF3 / RFU 11762660_at / Fold change /veh 11762660_at / RFU VCAN (11757783_s_at) / Fold change /veh VCAN (11757783_s_at) / RFU DDX43 (11728927_at) / Fold change /veh DDX43 (11728927_at) / RFU KRT8 (11758188_x_at) / Fold change /veh KRT8 (11758188_x_at) / RFU NKD1 (11759106_at) / Fold change /veh NKD1 (11759106_at) / RFU SRD5A1 (11742802_a_at) / Fold change /veh SRD5A1 (11742802_a_at) / RFU TPSAB1 /// TPSB2 (11721975_s_at) / Fold change /veh TPSAB1 /// TPSB2 (11721975_s_at) / RFU GSTM3 (11746129_a_at) / Fold change /veh GSTM3 (11746129_a_at) / RFU IL23R (11737362_x_at) / Fold change /veh IL23R (11737362_x_at) / RFU TMEM51 (11727254_a_at) / Fold change /veh TMEM51 (11727254_a_at) / RFU PIWIL2 (11732686_x_at) / Fold change /veh PIWIL2 (11732686_x_at) / RFU ORM1 (11744905_x_at) / Fold change /veh ORM1 (11744905_x_at) / RFU CCDC152 (11743942_at) / Fold change /veh CCDC152 (11743942_at) / RFU ECM1 (11717891_a_at) / Fold change /veh ECM1 (11717891_a_at) / RFU IL23R (11748794_a_at) / Fold change /veh IL23R (11748794_a_at) / RFU TNFAIP8L3 (11732012_x_at) / Fold change /veh TNFAIP8L3 (11732012_x_at) / RFU MBOAT4 (11741988_at) / Fold change /veh MBOAT4 (11741988_at) / RFU 11764193_at / Fold change /veh 11764193_at / RFU TMEM53 (11763286_at) / Fold change /veh TMEM53 (11763286_at) / RFU MAGEB2 (11727129_at) / Fold change /veh MAGEB2 (11727129_at) / RFU TMEM200A (11744735_a_at) / Fold change /veh TMEM200A (11744735_a_at) / RFU CCDC152 (11751479_a_at) / Fold change /veh CCDC152 (11751479_a_at) / RFU FAM211A (11726209_a_at) / Fold change /veh FAM211A (11726209_a_at) / RFU RGS16 (11746705_a_at) / Fold change /veh RGS16 (11746705_a_at) / RFU VCAN (11755009_s_at) / Fold change /veh VCAN (11755009_s_at) / RFU RHOB (11743442_s_at) / Fold change /veh RHOB (11743442_s_at) / RFU RGS16 (11720943_a_at) / Fold change /veh RGS16 (11720943_a_at) / RFU RGS16 (11720944_at) / Fold change /veh RGS16 (11720944_at) / RFU, VPS4B / Fold change vs veh, VPS4B / RFU, CREB1 / Fold change vs veh, CREB1 / RFU, DNAJC13 / Fold change vs veh, DNAJC13 / RFU, GNAQ / Fold change vs veh, GNAQ / RFU, CDK5R1 / Fold change vs veh, CDK5R1 / RFU, ZRANB3 / Fold change vs veh, ZRANB3 / RFU, CUL4A / Fold change vs veh, CUL4A / RFU, CCNY / Fold change vs veh, CCNY / RFU, UFL1 / Fold change vs veh, UFL1 / RFU, COG3 / Fold change vs veh, COG3 / RFU, DIAPH2 / Fold change vs veh, DIAPH2 / RFU, SKA2 / Fold change vs veh, SKA2 / RFU, AFF3 / Fold change vs veh, AFF3 / RFU, LMF1 / Fold change vs veh, LMF1 / RFU, IPO11 / Fold change vs veh, IPO11 / RFU, DFFB / Fold change vs veh, DFFB / RFU, FOXP1 / Fold change vs veh, FOXP1 / RFU, CARD8 / Fold change vs veh, CARD8 / RFU, STRN3 / Fold change vs veh, STRN3 / RFU, ADK / Fold change vs veh, ADK / RFU, RASSF2 / Fold change vs veh, RASSF2 / RFU, WIPF1 / Fold change vs veh, WIPF1 / RFU, LARP1B / Fold change vs veh, LARP1B / RFU, RASA1 / Fold change vs veh, RASA1 / RFU, RB1 / Fold change vs veh, RB1 / RFU, PPFIA1 / Fold change vs veh, PPFIA1 / RFU, MAT2A / Fold change vs veh, MAT2A / RFU, CCT5 / Fold change vs veh, CCT5 / RFU, WDR92 / Fold change vs veh, WDR92 / RFU, CUX1 / Fold change vs veh, CUX1 / RFU, TTC7A / Fold change vs veh, TTC7A / RFU, TMEM135 / Fold change vs veh, TMEM135 / RFU, DEPTOR / Fold change vs veh, DEPTOR / RFU, CPM / Fold change vs veh, CPM / RFU, DNAJB6 / Fold change vs veh, DNAJB6 / RFU, CACNA2D3 / Fold change vs veh, CACNA2D3 / RFU, DTX4 / Fold change vs veh, DTX4 / RFU, TFCP2 / Fold change vs veh, TFCP2 / RFU, GMCL1 /// GMCL1P1 / Fold change vs veh, GMCL1 /// GMCL1P1 / RFU, AEBP2 / Fold change vs veh, AEBP2 / RFU, SNHG1 /// SNORD22 /// SNORD25 /// SNORD26 /// SNORD27 /// SNORD28 /// SNORD29 /// SNORD31 / Fold change vs veh, SNHG1 /// SNORD22 /// SNORD25 /// SNORD26 /// SNORD27 /// SNORD28 /// SNORD29 /// SNORD31 / Fold change (Aza/veh), C12orf56 (ProbeSet 11735607_a_at) / Fold change (ACY-1035/veh), C12orf56 (ProbeSet 11735607_a_at) / Fold change (Aza/veh), FGFR1OP (ProbeSet 11751329_s_at) / Fold change (ACY-1035/veh), FGFR1OP (ProbeSet 11751329_s_at) / Fold change (Aza/veh), VPS36 (ProbeSet 11739960_a_at) / Fold change (ACY-1035/veh), VPS36 (ProbeSet 11739960_a_at) / RFU SYPL1 (11715823_x_at) / Fold change /veh SYPL1 (11715823_x_at) / RFU IGFBP7 (11715501_s_at) / Fold change /veh IGFBP7 (11715501_s_at) / RFU REEP3 (11722064_at) / Fold change /veh REEP3 (11722064_at) / RFU IGLL1 (11728026_x_at) / Fold change /veh IGLL1 (11728026_x_at): dose or concentration left out as unconfirmed
# Conditions: MV-4-11 cells, 48 hours
structure (smiles),measurement,value
Nc1ccc(-c2cccs2)cc1NC(=O)c1ccc2c(c1)cc(C1CC1)n2CCN1CCOCC1 [ACY-1035],Fold change /veh PRF1 (11729649_at),1.05
